What was measured:
PS2.M G-quadruplex DNA = test: Luminescence response of Ir(III) complexes towards different forms of DNA; format: binding; settings: complex 1 μM, DNA 5 μM
Excerpt: M G-quadruplex DNA (G4) over dsDNA (ds17) and ssDNA (CCRS-DEL), in particular IG4/IdsDNA refers to the ratio of the luminescent response of PS2. M G-quadruplex DNA over dsDNA (ds17); and IG4/IssDNA refers to the ratio of the luminescent response of PS2. M G-quadruplex DNA over ssDNA(CCR5-DEL).
M G-quadruplex DNA over dsDNA (ds17) and ssDNA (CCRS-DEL), in particular IG4/IdsDNA refers to the ratio of the luminescent response of PS2. M G-quadruplex DNA over dsDNA (ds17); and IG4/IssDNA refers to the ratio of the luminescent response of PS2. M G-quadruplex DNA over ssDNA(CCR5-DEL).
The G-quadruplex DNA-forming sequence (PS2. M) was annealed in Tris-HCl buffer (20 mM Tris, 100 mM KCl, pH 7.0) and were stored at −20° C. or less than −20° C. before use. Complex 1-17 (1 μM) was added to 5 μM of ssDNA, dsDNA or PS2. M G-quadruplex DNA in Tris-HCl buffer (20 mM Tris, pH 7.0).

F10T dsDNA = test: FRET melting assay, duplex; format: binding; settings: F10T 0.2 μM, complex 9 5 μM
Method: (§1) The ability of complex 9 to stabilize G-quadruplex DNA was investigated using a fluorescence resonance energy transfer (FRET) melting assay. The labeled G-quadruplex-forming oligonucleotide F21T, consisting of a sequence 5′-FAM-(SEQ ID NO: 5)-TAMRA-3′ (donor fluorophore FAM: 6-carboxyfluorescein; acceptor fluorophore TAMRA: 6-carboxytetramethylrhodamine), was diluted to 200 nM in a potassium cacodylate buffer (100 mM KCl, pH 7.0), and then heated from room temperature to 95° C. in the presence of the indicated concentrations of complex 9. The labeled duplex-forming oligonucleotide F10T, consisting of a sequence 5′-FAM-[…]-HEG-(SEQ ID NO: 6)-3′ (HEG linker: [(—CH2—CH2—O—)6]), was treated in the same manner, except that the buffer was changed to 10 mM lithium cacodylate (pH 7.4). Fluorescence readings were taken at intervals of 0.5° C. in a range of 25 to 95° C.

HCV NS3 helicase = target: T1, HCV NS3 helicase (Hepatitis C virus genotype 1a, UniProt P27958); test: G-quadruplex-based luminescent HCV NS3 helicase activity assay; format: biochemical
T1 construct: upon the addition of 0.8 μM HCV NS3 helicase; purchased Prospec Inc. (Ness-Ziona, Israel)
Method: The random-coil oligonucleotides ON1 (100 μM) and ON2 (100 μM) were incubated in Tris buffer (20 mM, pH 7.0). The solution was heated at a temperature of 72-98° C., in particular 95° C., for at least 30 seconds in particular 10 min, cooled to room temperature at 0.1° C./s, and further incubated at room temperature for 1 hour to ensure formation of the duplex substrate. The annealed product was stored at −20° C. before use. For assaying enzyme activity, 50 μL of Tris buffered solution (5 mM Tris-HCl, 5 mM NaCl, 1 mM MgCl2, 1 mM ATP, 0.1 mM DTT, pH 7.9) with the indicated concentrations of helicase or S1, Endo, DpnI, ExoI, EcoRI, RNase, DNase, and SSB were added to a solution containing the duplex substrate (0.25 μM). The mixture was heated to 37° C. for at least 30 minutes, e.g. 2 hours, to allow the indicated enzymes-catalyzed unwinding of the duplex substrate to take place. The duplex unwinding reaction was quenched by the addition of EDTA at a final concentration of 20 mM, and the mixture was subsequently diluted using Tris buffer (20 mM Tris, 20 mM KCl, 150 mM NH4Ac, pH 7.2) to a final volume of 500 μL. […] Emission spectra were recorded in the 500-720 nm range using an excitation wavelength of 360 nm.
For the detection of helicase activity in cell extract, 50 μL of Tris buffered solution (5 mM Tris-HCl, 5 mM NaCl, 1 mM MgCl2, 1 mM ATP, 0.1 mM DTT, pH 7.9) and the indicated concentrations of helicase were added to a solution containing the duplex substrate (0.25 μM) and cell extract. The mixture was heated to 37° C. for at least 30 minutes, e.g. 2 hours, to allow the helicase-catalyzed unwinding of the duplex substrate to take place. The duplex unwinding reaction was quenched by the addition of EDTA at a final concentration of 20 mM, and the mixture was subsequently diluted using Tris buffer (20 mM Tris, 20 mM KCl, 150 mM NH4Ac, pH 7.2) to a final volume of 500 μL. Finally, 1 μM of complex 9 was added to the mixture. Emission spectra were recorded in the 500-720 nm range using an excitation wavelength of 360 nm.

F21T G-quadruplex DNA = test: FRET melting assay, G-quadruplex; format: binding; settings: F21T 0.2 μM, complex 9 5 μM
Method: as §1

helicase = target: T2, helicase (Hepatitis C virus genotype 1a, UniProt P27958); test: Luminescence response of complexes towards helicase alone
T2 construct: upon the addition of 0.8 μM HCV NS3 helicase; purchased Prospec Inc. (Ness-Ziona, Israel)
Excerpt: M G-quadruplex DNA over helicase, IG4/Ihelicase refers to the ratio of the lunminscent response of PS2. M G-quadruplex DNA over helicase.

[1] = Photophysical measurement; format: physicochemical
Method: Emission spectra and lifetime measurements for complexes were performed on a PTI TimeMaster C720 Spectrometer (Nitrogen laser: pulse output 337 nm) fitted with a 380 nm filter. Error limits were estimated: λ (±1 nm); τ (±10%); φ (±10%). All solvents used for the lifetime measurements were degassed using three cycles of freeze-vac-thaw.
Luminescence quantum yields were determined using the method of Demas and Crosby [Ru(bpy)3][PF6]2 in degassed acetonitrile as a standard reference solution (Φr=0.062) and calculated according to the following equation:
Φs=Φr(Br/Bs)(ns/nr)^2(Ds/Dr) • where the subscripts s and r refer to sample and reference standard solution respectively, n is the refractive index of the solvents, D is the integrated intensity, and Φ is the luminescence quantum yield. The quantity B was calculated by B=1−10^−AL, where A is the absorbance at the excitation wavelength and L is the optical path length.

Pu27 G-quadruplex DNA = test: G-quadruplex fluorescent intercalator displacement (G4-FID) assay; format: binding
Method: The FID assay was performed as described. The Pu27 G-quadruplex DNA (0.25 μM) in Tris-HCl buffer (20 mM Tris, 100 mM KCl, pH 7.0) were annealed by heating at a temperature of 72-98° C., in particular 95° C., for at least 10 min. Indicated concentration of thiazole orange (0.5 μM for Pu27 G-quadruplex DNA and 0.5 μM for ds17) was added and the mixture was incubated for at least 30 minutes, in particular 1 hour. Emission measurement was taken after addition of each indicated concentration of complex 9 followed by an equilibration time for 5 minutes. The fluorescence area was converted into percentage of displacement (PD) by using the following equation. PD=100−[(FA/FA0)×100] (FA0=fluorescence area of DNA-TO complex in the absence of complex 9; FA=fluorescence area in the presence of complex 9).

T1 sequence (P27958 1027-1657): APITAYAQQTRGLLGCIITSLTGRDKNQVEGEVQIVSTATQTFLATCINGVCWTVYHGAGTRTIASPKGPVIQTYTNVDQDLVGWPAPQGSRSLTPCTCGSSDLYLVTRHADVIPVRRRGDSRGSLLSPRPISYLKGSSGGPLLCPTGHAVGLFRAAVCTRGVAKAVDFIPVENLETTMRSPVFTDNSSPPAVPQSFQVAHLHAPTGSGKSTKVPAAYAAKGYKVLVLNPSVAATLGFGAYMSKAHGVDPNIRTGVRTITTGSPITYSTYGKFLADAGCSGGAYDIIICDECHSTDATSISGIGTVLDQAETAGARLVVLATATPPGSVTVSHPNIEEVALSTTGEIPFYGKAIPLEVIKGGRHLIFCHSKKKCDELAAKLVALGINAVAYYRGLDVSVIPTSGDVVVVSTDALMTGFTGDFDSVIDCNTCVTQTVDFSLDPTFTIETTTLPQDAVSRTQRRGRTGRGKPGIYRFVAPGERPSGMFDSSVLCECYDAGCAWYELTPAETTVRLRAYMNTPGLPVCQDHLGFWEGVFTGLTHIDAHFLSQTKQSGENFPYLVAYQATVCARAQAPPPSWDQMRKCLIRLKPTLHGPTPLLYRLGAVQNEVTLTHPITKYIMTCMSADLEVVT
T2 sequence (P27958 1027-1657): as above

For F[P-](F)(F)(F)(F)F.[Ir+3].[c-]1ccccc1-c1ccc2ccccc2n1.[c-]1ccccc1-c1ccc2ccccc2n1.c1cnc2c(c1)ccc1cccnc12 [Complex 9], which “luminescence response in the presence of the PS2.M G-quadruplex” value (PS2.M G-quadruplex DNA) is on record?
Its value is “significantly enhanced luminescence response”.

What about the “change in the melting temperature of F10T dsDNA” value (F10T dsDNA) of the same compound?
The value was 4 °C.

What about the “luminescence of complex 9 upon incubation with helicase and the ON1-ON2 duplex substrate” value (HCV NS3 helicase; ON1-ON2 duplex substrate, K+) of the same compound?
The value was “significantly enhanced”.

And the “luminescence of complex 9 in response to helicase for the mutant DNA sequences” value (HCV NS3 helicase; ON1m/ON2 duplex mutant 0.25 μM, helicase 0.9 μM, complex 9 1 μM)?
The value was “slight decrease”.

What about the “enhancement in luminescence of the system” value (HCV NS3 helicase; helicase concentration 0.9 μM) of the same compound?
Its value is “ca. 4.5 fold”.

And the “luminescence intensity of the system with increasing helicase in cell extract” value (HCV NS3 helicase; reaction system containing 0.5% (v/v) cell extract)?
The value was “gradual increase in luminescence intensity”.

What about the “detection limit of the assay for helicase” value (HCV NS3 helicase; signal-to-noise ratio (S/N) of 3) of the same compound?
The value was 0.09 µM.

And the “increase of melting temperature (ΔTm) of F21T G-quadruplex” value (F21T G-quadruplex DNA)?
The value was “about 13 °C”.

What about the “change in luminescence intensity of the complex 9+G-quadruplex ensemble upon addition of helicase” value (helicase; 0.8 μM HCV NS3 helicase) of the same compound?
Its value is “no significant change”.

And the “luminescence enhancement in the presence of helicase only” value (helicase; helicase alone, no DNA)?
The value was “no luminescence enhancement in the presence of helicase”.

What about the Lifetime [1] of the same compound?
Its Lifetime is 8.13 μs.

What about the λem [1] of the same compound?
The λem was 570 nm.

What about the Quantum yield ([1]; reference [Ru(bpy)3][PF6]2 in degassed acetonitrile) of the same compound?
Its Quantum yield is 0.12.

And the “G4DC50, half-maximal concentration of compound required to displace 50% TO from DNA” value (Pu27 G-quadruplex DNA; Pu27 G-quadruplex DNA 0.25 μM, thiazole orange 0.5 μM, Tris-HCl buffer)?
The value was “ca. 5 μM”.

And the “displacement of thiazole orange from G-quadruplex DNA compared with duplex DNA” value (Pu27 G-quadruplex DNA; Pu27 G-quadruplex vs ds17 duplex)?
The value was “higher efficacy than from duplex DNA”.

Reference: patent US20170145472A1, “METHOD OF DETECTING HELICASE ACTIVITY” (University of Macau, priority 2015, published 2017)
